Experimental data from patent US20040106626A1, “6-Membered unsaturated heterocyclic compounds useful for selective inhibition of the coagulation cascade” (Pharmacia Corporation, priority 2001, published 2004).
Where two headings read alike, the source gives them in different places.

Columns and labels:
Format in all cases: biochemical
[1] = target: T1, recombinant soluble tissue factor and recombinant human factor VIIa (TF-VIIa) (Homo sapiens, UniProt P08709); experiment: TF-VIIa assay (chromogenic substrate hydrolysis); settings: reported only as less than or greater than 0.1 uM
T1 construct: conversion of coagulation factor VII to VIIa by factor Xa; purchased American Diagnostica, Greenwich CT; host or cells: soluble TF made in house in E. coli
Procedure, shortened: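 Chromogenic read at OD405, compared with control for percent inhibition. Substrate N-methylsulfonyl-D-phe-gly-arg-p-nitroaniline at 0.4 mM is cleaved by recombinant human VIIa (2 nM) complexed with soluble TF (100 nM). Buffer: pH 8.0 Tris-HCl 50 mM, CaCl2 5 mM, NaCl 100 mM, BSA 0.1%.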

Human factor Xa = target: T2, Human factor Xa (Homo sapiens, UniProt P00742); experiment: Xa assay (chromogenic substrate S-2765); settings: reported only as less than or greater than 30 uM; read-out: Factor Xa (II) IC50
T2 construct: purchased Enzyme Research Laboratories, South Bend Ind
Procedure, shortened: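 Chromogenic readout: S-2765 hydrolysis (0.15 mM) by 0.3 nM human FXa was monitored at 405 nm after 60 min at room temperature, with a time-zero background read. Buffer: 50 mM Tris-HCl, pH 8.0, 100 mM NaCl, 0.1% BSA. Inhibition is relative to buffer-only controls.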

[2] = test system: Normal human pooled plasma; experiment: Prothrombin time (PT) clotting assay; settings: concentration at which prothrombin time is prolonged by 2x normal, reported as less than or greater than 50 uM
Procedure, shortened: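 Normal human pooled plasma incubated with 100 uM compound or saline, then thromboplastin (human tissue factor) added and clotting time recorded in a coagulation machine. Compounds exceeding 3× normal PT (11.0 s) are titrated to find the concentration doubling PT.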

Human thrombin = target: T3, Human thrombin (Homo sapiens, UniProt P00734); experiment: Thrombin assay (chromogenic substrate)
T3 construct: converts prothrombin (II) to thrombin (IIa); purchased Calbiochem, La Jolla, Calif
Procedure, shortened: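 Percent inhibition derived by comparing OD405 nm of compound-treated and control samples. Thrombin cleavage of a p-nitroanilide chromogenic substrate provides the signal.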

[3] = reported only as less than or greater than 30 uM, read-out: Thrombin (II) IC50

T2 sequence (P00742 235-488 limits assumed): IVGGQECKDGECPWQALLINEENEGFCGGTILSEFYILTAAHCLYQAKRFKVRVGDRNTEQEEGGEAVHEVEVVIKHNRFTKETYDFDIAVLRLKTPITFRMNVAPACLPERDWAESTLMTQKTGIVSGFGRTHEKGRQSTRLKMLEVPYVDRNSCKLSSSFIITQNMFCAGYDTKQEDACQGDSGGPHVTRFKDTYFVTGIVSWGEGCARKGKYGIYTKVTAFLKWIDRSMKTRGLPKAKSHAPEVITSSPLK
T2 sequence (P00742 41-179 limits assumed): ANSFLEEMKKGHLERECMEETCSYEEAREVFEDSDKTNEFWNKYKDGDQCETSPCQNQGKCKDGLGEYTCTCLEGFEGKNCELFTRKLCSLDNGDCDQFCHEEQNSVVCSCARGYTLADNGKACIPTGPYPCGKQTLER
T1 sequence (P08709 213-466 limits assumed): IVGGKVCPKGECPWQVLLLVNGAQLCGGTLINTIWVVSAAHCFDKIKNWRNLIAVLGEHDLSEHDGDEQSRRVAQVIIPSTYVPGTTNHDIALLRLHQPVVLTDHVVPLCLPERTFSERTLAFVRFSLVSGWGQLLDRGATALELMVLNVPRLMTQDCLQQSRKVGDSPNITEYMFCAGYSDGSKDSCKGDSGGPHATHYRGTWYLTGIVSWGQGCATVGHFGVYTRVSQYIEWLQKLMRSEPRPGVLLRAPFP
T1 sequence (P08709 61-212 limits assumed): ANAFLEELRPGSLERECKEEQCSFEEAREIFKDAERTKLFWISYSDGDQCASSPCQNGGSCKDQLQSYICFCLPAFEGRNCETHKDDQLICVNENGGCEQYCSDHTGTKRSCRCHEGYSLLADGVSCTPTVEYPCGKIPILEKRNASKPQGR
T1 sequence (P13726 33-251 partner limits assumed): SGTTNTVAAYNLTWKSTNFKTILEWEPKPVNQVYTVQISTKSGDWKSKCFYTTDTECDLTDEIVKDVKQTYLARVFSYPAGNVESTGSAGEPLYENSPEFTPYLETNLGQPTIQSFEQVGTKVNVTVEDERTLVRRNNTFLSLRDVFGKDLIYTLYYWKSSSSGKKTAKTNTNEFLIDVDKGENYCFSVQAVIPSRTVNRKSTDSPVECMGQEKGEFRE

Row | Compound | IC50 [1] [µM] | IC50 (Human factor Xa) [µM] | PT (Prothrombin time) 2xPT [2] [µM] | IC50 (Human thrombin; [3]) [µM] | IC50 (Human thrombin; Thrombin (II) IC50, reported only as less than or greater than 30 uM) [µM]
1 | CCCCS(=O)(=O)c1cc(N)cc(-c2cnc(NC(C)C)c(=O)n2CC(=O)NCc2ccc(C(=N)N)cc2)c1.O=C(O)C(F)(F)F.O=C(O)C(F)(F)F [Example 230] | < 0.1 | > 30 | <50.0 | > 30 | 
2 | CCC(CC)S(=O)(=O)c1cc(N)cc(-c2cnc(NC(C)C)c(=O)n2CC(=O)NCc2ccc(C(=N)N)cc2)c1.O=C(O)C(F)(F)F.O=C(O)C(F)(F)F [Example 231] | < 0.1 | > 30 | <50.0 | > 30 | 
3 | CCS(=O)(=O)c1cc(N)cc(-c2cnc(NC(C)C)c(=O)n2CC(=O)NCc2ccc(C(=N)N)cc2)c1.O=C(O)C(F)(F)F.O=C(O)C(F)(F)F [Example 232] | < 0.1 | > 30 | <50.0 | > 30 | 
4 | CC(C)Nc1ncc(-c2cc(N)cc(S(=O)(=O)CC3CCCCC3)c2)n(CC(=O)NCc2ccc(C(=N)N)cc2)c1=O.O=C(O)C(F)(F)F.O=C(O)C(F)(F)F [Example 233] | < 0.1 | > 30 | <50.0 | > 30 | 
5 | CC(C)Nc1ncc(-c2cc(N)cc(S(=O)(=O)C3CCCC3)c2)n(CC(=O)NCc2ccc(C(=N)N)cc2)c1=O.O=C(O)C(F)(F)F.O=C(O)C(F)(F)F [Example 235] | < 0.1 | > 30 | <50.0 | > 30 | 
6 | CCC(C)CS(=O)(=O)c1cc(N)cc(-c2cnc(NC(C)C)c(=O)n2CC(=O)NCc2ccc(C(=N)N)cc2)c1.O=C(O)C(F)(F)F.O=C(O)C(F)(F)F (stereo not drawn) [Example 237] | < 0.1 | > 30 | <50.0 | > 30 | 
7 | CC(C)Nc1ncc(-c2cc(N)cc(OC(=O)C3CC3)c2)n(CC(=O)NCc2ccc(C(=N)N)cc2)c1=O.O=C(O)C(F)(F)F.O=C(O)C(F)(F)F [Example 238] | < 0.1 | > 30 | <50.0 | > 30 | 
8 | CC(C)Nc1ncc(-c2cc(N)cc(OC(=O)NCc3ccccc3)c2)n(CC(=O)NCc2ccc(C(=N)N)cc2)c1=O.O=C(O)C(F)(F)F.O=C(O)C(F)(F)F [Example 239] | < 0.1 | > 30 | <50.0 |  | > 30
9 | CC[C@@H](C)NC(=O)c1cc(N)cc(-c2cnc(NC(C)C)c(=O)n2CC(=O)NCc2ccc(C(=N)N)cc2O)c1.O=C(O)C(F)(F)F [Example 240] | < 0.1 | > 30 | <50.0 | > 30 | 
